Measured values as given in patent publication US20120309763A1, “ANTIFUNGAL COMPOSITION INTENDED TO BE APPLIED TO A PERFORATED NAIL” (priority 2009, published 2012).

Tests used:
[1] = Diffusion of terbinafine HCl through the layers of the nail, Franz cells (Example 10): dorsal layer; type: in vitro ADME; conditions: 5 days
Description: This temperature is checked before each withdrawal.

[2] = Diffusion of terbinafine HCl through the layers of the nail, Franz cells (Example 10): intermediate layer
Description: For each formulation, 2 nails (1 with the dorsal layer and 1 without the dorsal layer) are used per donor. The treatment time is 5 days with a new application of each formula every day. The amount of formula deposited daily on the surface of the nail is 10 μl/cm2.
For each donor, the thickness of the nails is measured. Then, for each donor, the nails are prepared in the following manner:
4 nails without dorsal layer: for the nails from this group, the dorsal face is removed using a miniature sander in order to reach the intermediate layer by removing 40% of the initial thickness of the nail,
The Franz type diffusion cells used are placed in a thermostatically-controlled bath in order to obtain a temperature of 32±1° C. at the surface of the nail. The nails are placed in the diffusion cell with the ventral side towards the receiving compartment, phosphate buffer (pH 7.4±0.1) containing 0.1% of Volpo (Oleth-20). During the experiment, the diffusion cells are placed in a thermostatically-controlled bath in order to obtain a temperature of 32±1° C. This temperature is checked before each withdrawal. […]
The samples, receiving liquids and nail extracts are then analysed by MS/MS. […]
The procedures of the study and also the amounts of terbinafine HCl in the various layers of the nail, dorsal and intermediate, were carried out and analysed according to the same protocol as before.

Row | factor of better diffusion in the intermediate layer relative to the dorsal layer ([2]; composition with amphoteric agent) | Compound | increase of the penetration of terbinafine through the dorsal layer by the presence of the amphoteric agent (×) ([1]; 10% solution with vs without amphoteric agent) | factor of reduction of the amount of terbinafine HCl in the nail by the presence of the amphoteric agent ([1]; Lamisil Spray 1% with vs without amphoteric agent, dorsal layer) | factor of reduction of the amount of terbinafine HCl in the nail by the presence of the amphoteric agent ([2]; Lamisil Spray 1% with vs without amphoteric agent, intermediate layer, 5 days)
1 | – | CCCCCCCCCCCC[N+](C)(C)CC(=O)[O-] [amphoteric agent, Lauryl Dimethylaminoacetic Acid Betaine] | 3 | 3 | 3
2 | 3 | CN(C/C=C/C#CC(C)(C)C)Cc1cccc2ccccc12.Cl [terbinafine HCl, terbinafine hydrochloride, reference compound] | – | – | –
